For series [1], the system named is Trypanosoma cruzi. Put plainly: microbe, parasite or virus in culture. It is filed as functional. The settings on record: Dm28c, 48 h.
Description: Antitrypanosomal activity against Trypanosoma cruzi Dm28c epimastigotes after 48 hrs by resazurin dye based assay
The test system of series [2] is Trypanosoma cruzi. Description: microbe, parasite or virus in culture. It is filed as functional. The settings on record: Y.
Description: Antitrypanosomal activity against Trypanosoma cruzi Y epimastigotes resazurin dye based assay
The nature of series [3]: in vitro. The conditions noted are these: mouse, RAW264.7 cells.
Description: Cytotoxicity against mouse RAW264.7 cells assessed as reduction in cell viability after 48 hrs by MTT assay
The nature of series [4]: in vitro. The conditions noted are these: chlorocebus sabaeus, Vero cells.
Description: Cytotoxicity against African green monkey Vero cells 72 hrs by CellTiter-Glo assay
In series [5] the test system is Leishmania amazonensis. Put plainly: microbe, parasite or virus in culture. It is filed as functional. The settings on record: IFLA/BR/1967/PH8, 48 h.
Description: Antileishmanial activity against Leishmania amazonensis IFLA/BR/1967/PH8 promastigotes after 48 hrs by resazurin dye based assay
Series [6] deals with Leishmania infantum. Put plainly: microbe, parasite or virus in culture. The conditions noted are these: MHOM/BR/1974/PP75, 48 h. It is filed as functional.
Description: Antileishmanial activity against Leishmania infantum MHOM/BR/1974/PP75 promastigotes after 48 hrs by resazurin dye based assay
Series [7] concerns Leishmania amazonensis. Put plainly: microbe, parasite or virus in culture. It is filed as functional, organism-based. The settings on record: IFLA/BR/1967/PH8, 48 h.
Description: Antileishmanial activity against Leishmania amazonensis IFLA/BR/1967/PH8 promastigotes assessed as reduction in parasite viability IFLA/BR/1967/PH8 after 48 hrs by resazurin dye based assay
The subject of series [8] is Leishmania infantum. Description: microbe, parasite or virus in culture. It is filed as functional, organism-based. The conditions noted are these: MHOM/BR/1974/PP75, 48 h.
Description: Antileishmanial activity against Leishmania infantum MHOM/BR/1974/PP75 promastigotes assessed as reduction in parasite viability after 48 hrs by resazurin dye based assay

SMILES strings stand for the structures. Converted amounts (≈) assume the structure as drawn. Bounds are passed on as bounds.

For the molecule `O=C(Cn1ccnc1[N+](=O)[O-])NCc1ccccc1` [BENZNIDAZOLE], the MIC against Trypanosoma cruzi [1] and with Trypanosoma cruzi [2] was 32 µM (≈ 8.33 µg/mL) throughout. In “in vitro [3]”, the CC50 at 48 h came out at 138000 nM. Besides, the CC50 at 72 h in “in vitro [4]” is more than 500000 nM.

On to `C[C@@H]1[C@H](O)[C@@H](C)/C=C/C=C/C=C/C=C/C=C/C=C/C=C/[C@H](O[C@@H]2O[C@H](C)[C@@H](O)[C@H](N)[C@@H]2O)C[C@@H]2O[C@](O)(C[C@@H](O)C[C@@H](O)[C@H](O)CC[C@@H](O)C[C@@H](O)CC(=O)O[C@H]1C)C[C@H](O)[C@H]2C(=O)O` [AMPHOTERICIN B], for which the MIC in the series with Leishmania amazonensis [5] and against Leishmania infantum [6] was 8 µM (≈ 7.39 µg/mL) each time. Moreover, the IC50 in the series on Leishmania amazonensis [7] was found to be 1650 nM; with Leishmania infantum [8] it was 1770 nM. Also, the CC50 at 48 h in “in vitro [3]” stood at 1000 nM.

Broadly, the CC50 is the concentration at which the toxic effect on the cells reaches its halfway point. Low values mean greater toxicity to the cells, high ones lower toxicity to the cells. A word on the IC50: it is the concentration that inhibits the measured activity by half.

The values are drawn from ChEMBL document CHEMBL4433208, “N-Nitrosulfonamides as Carbonic Anhydrase Inhibitors: A Promising Chemotype for Targeting Chagas Disease and Leishmaniasis” (ACS Med Chem Lett, 2019).
